According to paper PMC2099433, “The binding site for neohesperidin dihydrochalcone at the human sweet taste receptor” (BMC Structural Biology, 2007):
Substitutions are numbered along the chain they refer to. Where a SMILES comes first, the peptide text is derived from it.

What was measured:
[1] = biological target: T1, hTAS1R2 + hTAS1R3 Y699L^4.60 (Homo sapiens, UniProt Q7RTX0+Q8TE23, Y699L); assay: Calcium response (FLIPR), hTAS1R3 mutant coexpressed with hTAS1R2; type: cell-based; conditions: variant Y699L^4.60; for Emax: read-out: maximal signal (% of wt)
T1 construct: expressed in transfected cells; host or cells: HEK293T cells stably expressing G16Gust44
T1 sequence (Q7RTX0 21-852 Y699L): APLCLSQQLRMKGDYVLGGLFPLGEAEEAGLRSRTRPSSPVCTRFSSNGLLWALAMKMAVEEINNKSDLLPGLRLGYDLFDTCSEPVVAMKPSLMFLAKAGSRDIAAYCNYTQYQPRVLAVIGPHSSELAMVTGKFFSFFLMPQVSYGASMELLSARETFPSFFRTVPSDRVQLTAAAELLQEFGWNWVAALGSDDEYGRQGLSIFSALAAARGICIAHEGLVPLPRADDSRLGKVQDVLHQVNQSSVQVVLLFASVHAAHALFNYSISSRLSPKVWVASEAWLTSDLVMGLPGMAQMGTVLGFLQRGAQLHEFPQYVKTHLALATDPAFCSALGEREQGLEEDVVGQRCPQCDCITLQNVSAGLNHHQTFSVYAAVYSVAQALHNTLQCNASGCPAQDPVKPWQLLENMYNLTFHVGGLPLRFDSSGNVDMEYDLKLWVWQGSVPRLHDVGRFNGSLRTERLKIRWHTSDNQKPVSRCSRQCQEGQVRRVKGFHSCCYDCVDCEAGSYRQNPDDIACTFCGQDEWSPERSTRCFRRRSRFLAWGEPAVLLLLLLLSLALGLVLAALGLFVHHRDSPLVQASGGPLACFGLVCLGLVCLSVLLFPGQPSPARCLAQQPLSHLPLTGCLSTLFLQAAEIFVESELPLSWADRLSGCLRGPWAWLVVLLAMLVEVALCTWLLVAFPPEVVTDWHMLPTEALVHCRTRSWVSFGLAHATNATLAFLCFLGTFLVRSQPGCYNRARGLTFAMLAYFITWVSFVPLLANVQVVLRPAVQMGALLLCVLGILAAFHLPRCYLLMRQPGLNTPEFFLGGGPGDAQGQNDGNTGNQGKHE
T1 sequence (Q8TE23 20-839): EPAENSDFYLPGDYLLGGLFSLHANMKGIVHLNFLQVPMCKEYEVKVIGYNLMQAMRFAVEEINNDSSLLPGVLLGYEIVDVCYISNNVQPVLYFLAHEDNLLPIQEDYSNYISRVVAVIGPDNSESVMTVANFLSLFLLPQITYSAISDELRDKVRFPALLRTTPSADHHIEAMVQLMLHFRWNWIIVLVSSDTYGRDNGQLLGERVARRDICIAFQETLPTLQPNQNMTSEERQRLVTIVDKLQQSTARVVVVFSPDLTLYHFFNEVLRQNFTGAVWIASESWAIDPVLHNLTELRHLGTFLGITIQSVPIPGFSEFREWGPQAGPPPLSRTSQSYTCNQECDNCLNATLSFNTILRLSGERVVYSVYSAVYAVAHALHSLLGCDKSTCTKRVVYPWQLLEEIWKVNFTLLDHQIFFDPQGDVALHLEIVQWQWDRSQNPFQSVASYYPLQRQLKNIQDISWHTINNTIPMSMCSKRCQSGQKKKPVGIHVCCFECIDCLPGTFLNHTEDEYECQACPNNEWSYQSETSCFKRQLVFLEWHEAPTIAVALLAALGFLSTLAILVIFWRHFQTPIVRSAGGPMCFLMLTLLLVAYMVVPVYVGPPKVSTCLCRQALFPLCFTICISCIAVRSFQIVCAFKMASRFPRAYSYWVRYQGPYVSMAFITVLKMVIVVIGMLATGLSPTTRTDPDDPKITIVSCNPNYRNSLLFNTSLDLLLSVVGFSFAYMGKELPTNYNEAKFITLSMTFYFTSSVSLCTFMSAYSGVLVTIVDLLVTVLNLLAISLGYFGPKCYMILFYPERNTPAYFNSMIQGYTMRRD
How it was run: (§1)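 Calcium mobilization was measured by FLIPR in Fluo4-AM-loaded HEK293T cells coexpressing G16Gust44 with the tagged receptor pair. Signals had mock responses removed and were given as ΔF/F.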

[2] = biological target: T2, hTAS1R2 + hTAS1R3 L800F^7.38 (Homo sapiens, UniProt Q7RTX0+Q8TE23, L800F); assay: as above; type: cell-based; conditions: variant L800F^7.38; for Emax: read-out: maximal signal (% of wt)
T2 construct: expressed in transfected cells; host or cells: HEK293T cells stably expressing G16Gust44
T2 sequence (Q7RTX0 21-852 L800F): T1 sequence (Q7RTX0 21-852 Y699L) with L679Y, L780F
T2 sequence (Q8TE23 20-839): T1 sequence (Q8TE23 20-839)
How it was run: as §1

Row | SMILES | EC50 [1] | Emax [1] | EC50 [2] | Emax [2]
1 | COc1ccc(CCC(=O)c2c(O)cc(O[C@@H]3O[C@H](CO)[C@@H](O)[C@H](O)[C@H]3O[C@@H]3O[C@@H](C)[C@H](O)[C@@H](O)[C@H]3O)cc2O)cc1O [NHDC, neohesperidin dihydrochalcone] | 700 ± 100 µM | 83 ± 40% | 200 ± 100 µM | 91 ± 70%
2 | COC(=O)[C@H](Cc1ccccc1)NC(=O)[C@@H](N)CC(=O)O [aspartame] (HELM PEPTIDE1{D.F.[CO[*:1]]}$$$$V2.0) | 1600 ± 400 µM | 78 ± 9% | 1200 ± 300 µM | 90 ± 1%
